In US20210393645A1, “TREATMENT FOR PROGRESSIVE MULTIPLE SCLEROSIS” (UTI LIMITED PARTNERSHIP, priority 2016, published 2021):
Where a name gives a salt, the structure may show the parent alone. Read-outs that look alike come from different tables or passages of the source.

Tested on: human neurons
Test: Iron (FeSO4) mediated neurotoxicity screening, MAP-2 positive neurons counted
Format: cell-based
Settings: for viability at 10 µM: Homo sapiens, Neuron, read-out: Drug % control (mean): number of neurons normalized to untreated control
Method: Human neurons were isolated from brain tissues of therapeutically aborted 15-20 week old fetuses, in accordance with ethics approval of the University of Calgary ethics committee, after written informed consent of the pregnant donors. Neurons were isolated as previously described (Vecil et al., 2000) brain specimens were washed in phosphate buffered saline (PBS) to remove blood, followed by removal of meninges. […] Thereafter, the digestion was stopped by addition of 4 ml fetal calf serum (FCS). […] Cells were cultured in feeding medium of minimal essential medium (MEM) supplemented with 10% fetal bovine serum (FBS), 1 μM sodium pyruvate, 10 μM glutamine, 1× non-essential amino acids, 0.1% dextrose and 1% penicillin/streptomycin (all culture supplements from Invitrogen, Burlington, Canada). […] For experiments, the neuron-enriched cultures were retrypsinized and cells were plated in poly-L-ornithine pre-coated 96-well plates at a density of 100,000 cells/well in 100 μl of the complete medium supplemented with cytosine arabinoside. […] All conditions were performed in quadruplicates. A day later cells were fixed using 4% paraformaldehyde (PFA) and stored in PBS in 4° C.
Briefly, there were 80 compounds located in specific wells on each plate (e. g. B07). […] Each compound was supplied at a concentration of 10 mM dissolved in DMSO.
After filtering with a 0.2 μm filter, FeSO4 was added to cells in a final concentration of 25-50 μM in a volume of 50 μl medium to the cells. Rotenone was dissolved in dimethyl sulfoxide (DMSO) and used in a final concentration of 10 μM.
Staining was performed at room temperature. A blocking buffer was first introduced for 1 h followed by incubation with primary antibody overnight in 4° C.
Cell nuclei were stained with Hoechst S769121 (nuclear yellow). Cells were stored in 4° C. in the dark before imaging.
Images were taken using the automated ImageXpress® imaging system (Molecular Devices, Sunnyvale, Calif.) through a 10x objective microscope lens, displaying 4 or 9 sites per well. […] Cells were defined according to fluorescence intensity and size at different wavelengths. Data from all sites per well were averaged to one data point.
Neurons were pre-incubated with each compound for 1 h followed by application of FeSO4.

[1] = drug 10 μM 1 h before FeSO4 25 or 50 μM, MAP-2 neurons after 24 h

| SMILES | viability at 10 µM [1] [%] | other results |
| --- | --- | --- |
| Nc1nc(=O)c2c([nH]1)NCC(CNc1ccc(C(=O)N[C@@H](CCC(=O)[O-])C(=O)[O-])cc1)N2C=O.[Ca+2] (stereo partly shown) [LEUCOVORIN CALCIUM] |  | Drug % control (mean): number of neurons normalized to untreated control [1]: 24.84% |
| O=C1C(O)=C([C@H]2CC[C@H](c3ccc(Cl)cc3)CC2)C(=O)c2ccccc21 [ATOVAQUONE] | 67.7 |  |
| O=C(O)c1cc2cc(Cl)ccc2[nH]1 [5-CHLOROINDOLE-2-CARBOXYLIC ACID] | 37.3 |  |
| CCCCNC(=O)NS(=O)(=O)c1ccc(C)cc1 [TOLBUTAMIDE] | 9.09 |  |
| Cc1onc(-c2ccccc2Cl)c1C(=O)N[C@@H]1C(=O)N2[C@@H]1SC(C)(C)[C@@H]2C(=O)O [CLOXACILLIN SODIUM] | 28.4 |  |
| CN(C)CCc1c[nH]c2ccc(C[C@H]3COC(=O)N3)cc12 [ZOLMITRIPTAN] | 54.9 |  |
| CN(C)[C@@H]1C(O)=C(C(N)=O)C(=O)[C@@]2(O)C(O)=C3C(=O)c4c(O)cccc4[C@@](C)(O)[C@H]3C[C@@H]12 [TETRACYCLINE HYDROCHLORIDE] | 25 |  |
| CC(C(=O)O)c1cccc(C(=O)c2ccccc2)c1 (stereo not shown) [KETOPROFEN] | 44.3 |  |
| Clc1ccccc1C(c1ccccc1)(c1ccccc1)n1ccnc1 [CLOTRIMAZOLE] | 12.4 |  |
| CNCCCC12CCC(c3ccccc31)c1ccccc12 [MAPROTILINE HYDROCHLORIDE] | 0.61 |  |
| CCCNC(=O)NS(=O)(=O)c1ccc(Cl)cc1 [CHLORPROPAMIDE] | 5.32 |  |
| CN[C@@H](C)[C@@H](O)c1ccccc1 [PSEUDOEPHEDRINE HYDROCHLORIDE] | 26.7 |  |
| O=P1(N(CCCl)CCCl)NCCCO1 (stereo not shown) [CYCLOPHOSPHAMIDE HYDRATE] |  | viability at 10 µM (24 h): 6.39% |
| CC(C(=O)O)c1ccc(-c2ccccc2)c(F)c1 (stereo not shown) [FLURBIPROFEN] | 4.63 |  |
| CCc1ccc(CCOc2ccc(CC3SC(=O)NC3=O)cc2)nc1 (stereo not shown) [PIOGLITAZONE HYDROCHLORIDE] | 84.6 |  |
| COc1cc2c(c(OC)c1OC)-c1ccc(OC)c(=O)cc1[C@@H](NC(C)=O)CC2 [COLCHICINE] |  | viability at 10 µM (24 h): 3.12% |

| SMILES | viability at 10 µM [1] [%] | other results |
| --- | --- | --- |
| CC[N+](C)(C)c1cccc(O)c1 [EDROPHONIUM CHLORIDE] | 44 |  |
| COCCOC(=O)C1=C(C)NC(C)=C(C(=O)OC(C)C)C1c1cccc([N+](=O)[O-])c1 (stereo not shown) [NIMODIPINE] | 62.8 |  |
| CN1CCC(=C2c3ccccc3CC(=O)c3sccc32)CC1 [KETOTIFEN FUMARATE] | 1.77 |  |
| Cc1ncc([N+](=O)[O-])n1CCO [METRONIDAZOLE] | 27.1 |  |
| CC(CCc1ccccc1)NC(C)C(O)c1ccc(O)cc1 (stereo not shown) [NYLIDRIN HYDROCHLORIDE] | 50.1 |  |
| OCCN1CCN(CCCN2c3ccccc3Sc3ccc(Cl)cc32)CC1 [PERPHENAZINE] | 78.8 |  |
| COc1ccc2c(c1)c(CC(=O)O)c(C)n2C(=O)c1ccc(Cl)cc1 [INDOMETHACIN] | 4.52 |  |
| COc1ccc(Cl)cc1C(=O)NCCc1ccc(S(=O)(=O)NC(=O)NC2CCCCC2)cc1 [GLYBURIDE] | 45.2 |  |
| C[C@H](CCC(=O)O)[C@H]1CC[C@H]2[C@@H]3[C@@H](O)C[C@@H]4C[C@H](O)CC[C@]4(C)[C@H]3CC[C@]12C [URSODIOL] | 24.6 |  |
| Nc1nc2nc[nH]c2c(=S)[nH]1 [THIOGUANINE] | 21.7 |  |
| CC(C[N+](C)(C)C)OC(N)=O (stereo not shown) [BETHANECHOL CHLORIDE] | 16 |  |
| NC(=O)NO [HYDROXYUREA] | 3.31 |  |
| O=c1n(CCCN2CCN(c3cccc(Cl)c3)CC2)nc2ccccn12 [TRAZODONE HYDROCHLORIDE] | 25.9 |  |
| CC(C)c1c(C(=O)Nc2ccccc2)c(-c2ccccc2)c(-c2ccc(F)cc2)n1CC[C@@H](O)C[C@@H](O)CC(=O)[O-].CC(C)c1c(C(=O)Nc2ccccc2)c(-c2ccccc2)c(-c2ccc(F)cc2)n1CC[C@@H](O)C[C@@H](O)CC(=O)[O-].[Ca+2] [ATORVASTATIN CALCIUM] |  | Drug % control (mean): number of neurons normalized to untreated control [1]: 68.87% |
| CN(C)C(=O)Oc1ccc[n+](C)c1 [PYRIDOSTIGMINE BROMIDE] | 35.8 |  |
